Test results: ChEMBL document CHEMBL1201862, “PubChem BioAssay data set” (2004)
Active and inactive are the calls of the source.

Experiments:
[1] = target: T1, CAAX prenyl protease 2 (Homo sapiens, UniProt Q9Y256); experiment: inhibition of Ras-converting CAAX protease Rce1 – biochemical, yeast membranes, quenched-peptide fluorescence, cherry-pick, dose response (AID 588849)
T1 sequence (Q9Y256 whole entry): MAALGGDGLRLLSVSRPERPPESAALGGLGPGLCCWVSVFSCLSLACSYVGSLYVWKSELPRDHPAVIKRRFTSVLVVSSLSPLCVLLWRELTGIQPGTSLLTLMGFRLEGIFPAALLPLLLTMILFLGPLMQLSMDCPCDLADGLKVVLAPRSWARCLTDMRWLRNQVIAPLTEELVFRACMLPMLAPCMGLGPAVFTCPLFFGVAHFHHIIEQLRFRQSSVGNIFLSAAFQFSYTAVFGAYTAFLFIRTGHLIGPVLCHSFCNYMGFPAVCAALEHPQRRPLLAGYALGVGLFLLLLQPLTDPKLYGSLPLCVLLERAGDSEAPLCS

[2] = target: T2, DNA repair protein RAD52 homolog (Homo sapiens, UniProt P43351); type: functional, biochemical
T2 sequence (P43351 whole entry): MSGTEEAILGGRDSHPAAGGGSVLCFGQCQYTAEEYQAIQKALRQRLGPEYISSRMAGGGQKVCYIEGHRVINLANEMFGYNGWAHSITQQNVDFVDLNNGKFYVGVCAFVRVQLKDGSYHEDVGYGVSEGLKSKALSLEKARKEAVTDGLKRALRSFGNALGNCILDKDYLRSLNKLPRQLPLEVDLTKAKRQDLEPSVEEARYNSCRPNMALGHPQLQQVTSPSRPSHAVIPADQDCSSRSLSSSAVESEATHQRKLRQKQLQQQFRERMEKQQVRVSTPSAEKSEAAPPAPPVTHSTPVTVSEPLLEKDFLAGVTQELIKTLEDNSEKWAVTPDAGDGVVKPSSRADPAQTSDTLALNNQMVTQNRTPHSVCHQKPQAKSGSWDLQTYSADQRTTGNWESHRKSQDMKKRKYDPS

[3] = target: T3, CAAX prenyl protease 2 (Saccharomyces cerevisiae S288c, UniProt Q03530); type: biochemical
T3 sequence (Q03530 whole entry): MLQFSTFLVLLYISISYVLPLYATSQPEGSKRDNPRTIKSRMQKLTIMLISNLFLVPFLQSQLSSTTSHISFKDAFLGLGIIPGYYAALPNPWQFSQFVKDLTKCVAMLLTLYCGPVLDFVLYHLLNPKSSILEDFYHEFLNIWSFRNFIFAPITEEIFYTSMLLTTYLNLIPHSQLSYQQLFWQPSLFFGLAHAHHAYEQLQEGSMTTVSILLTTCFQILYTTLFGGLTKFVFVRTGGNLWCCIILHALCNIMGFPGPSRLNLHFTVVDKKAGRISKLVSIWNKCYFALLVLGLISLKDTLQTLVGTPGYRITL

[4] = target: T4, Histone-lysine N-methyltransferase NSD2 (Homo sapiens, UniProt O96028); type: biochemical
T4 sequence (O96028 whole entry): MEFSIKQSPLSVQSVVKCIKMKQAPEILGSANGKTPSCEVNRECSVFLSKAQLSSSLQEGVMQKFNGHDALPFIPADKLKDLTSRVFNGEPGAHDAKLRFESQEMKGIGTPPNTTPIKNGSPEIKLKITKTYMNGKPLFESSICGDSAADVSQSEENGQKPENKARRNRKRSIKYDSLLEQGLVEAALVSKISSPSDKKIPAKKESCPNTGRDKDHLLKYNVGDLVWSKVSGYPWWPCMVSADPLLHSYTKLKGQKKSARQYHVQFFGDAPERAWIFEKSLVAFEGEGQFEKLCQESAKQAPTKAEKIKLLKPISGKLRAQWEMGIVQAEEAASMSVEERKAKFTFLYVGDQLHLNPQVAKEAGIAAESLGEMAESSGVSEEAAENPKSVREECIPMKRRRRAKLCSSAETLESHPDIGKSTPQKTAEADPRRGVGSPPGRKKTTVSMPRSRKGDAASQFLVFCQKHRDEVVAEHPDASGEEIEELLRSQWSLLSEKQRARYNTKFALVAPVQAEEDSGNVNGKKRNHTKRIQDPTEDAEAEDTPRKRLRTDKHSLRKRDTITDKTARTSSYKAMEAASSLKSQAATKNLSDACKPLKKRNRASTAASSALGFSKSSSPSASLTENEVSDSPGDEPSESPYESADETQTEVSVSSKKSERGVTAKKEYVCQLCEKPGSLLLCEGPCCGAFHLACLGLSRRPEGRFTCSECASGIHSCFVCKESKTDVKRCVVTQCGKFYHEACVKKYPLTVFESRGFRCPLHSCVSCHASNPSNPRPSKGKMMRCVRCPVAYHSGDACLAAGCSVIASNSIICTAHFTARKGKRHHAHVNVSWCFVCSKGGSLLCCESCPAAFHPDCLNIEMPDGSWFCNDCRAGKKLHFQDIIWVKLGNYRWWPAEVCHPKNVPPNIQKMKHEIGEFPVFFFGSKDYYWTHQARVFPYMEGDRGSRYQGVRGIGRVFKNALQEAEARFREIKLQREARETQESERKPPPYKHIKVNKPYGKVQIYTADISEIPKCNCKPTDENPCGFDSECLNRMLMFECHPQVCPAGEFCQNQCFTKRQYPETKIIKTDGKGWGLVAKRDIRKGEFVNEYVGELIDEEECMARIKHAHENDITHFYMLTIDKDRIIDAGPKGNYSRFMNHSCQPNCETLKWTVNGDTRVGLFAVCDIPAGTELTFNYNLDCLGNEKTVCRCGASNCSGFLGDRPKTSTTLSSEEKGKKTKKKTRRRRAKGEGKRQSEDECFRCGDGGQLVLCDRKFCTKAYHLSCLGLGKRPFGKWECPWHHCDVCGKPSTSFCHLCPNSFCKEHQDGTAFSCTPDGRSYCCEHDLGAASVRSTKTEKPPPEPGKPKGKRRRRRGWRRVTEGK

[5] = target: T5, Polyadenylate-binding protein 1 (Homo sapiens, UniProt P11940); experiment: MLLE domain peptide-binding blockers, IC50 – biochemical, fluorescence polarization, FITC-PAM2 peptide, dose response (AID 602259); type: functional; details: read-out: IC50_Mean
[6] = target: T5, Polyadenylate-binding protein 1; experiment: MLLE binding blockers, Cy5 peptide tracer – biochemical, fluorescence polarization, Cy5-PAM2 peptide, secondary, miRNA deadenylation inhibitor project, dose response (AID 602260); type: functional; details: read-out: IC50_Mean
[7] = target: T6, High affinity choline transporter 1 (Homo sapiens, UniProt Q9GZV3); experiment: human choline transporter blockers, potency – cell-based, 10-point CRC, membrane potential dye, dose response (AID 588401); type: functional;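 also: membrane potential dye fluorescence of choline-evoked depolarization via CHT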
T6 sequence (Q9GZV3 whole entry): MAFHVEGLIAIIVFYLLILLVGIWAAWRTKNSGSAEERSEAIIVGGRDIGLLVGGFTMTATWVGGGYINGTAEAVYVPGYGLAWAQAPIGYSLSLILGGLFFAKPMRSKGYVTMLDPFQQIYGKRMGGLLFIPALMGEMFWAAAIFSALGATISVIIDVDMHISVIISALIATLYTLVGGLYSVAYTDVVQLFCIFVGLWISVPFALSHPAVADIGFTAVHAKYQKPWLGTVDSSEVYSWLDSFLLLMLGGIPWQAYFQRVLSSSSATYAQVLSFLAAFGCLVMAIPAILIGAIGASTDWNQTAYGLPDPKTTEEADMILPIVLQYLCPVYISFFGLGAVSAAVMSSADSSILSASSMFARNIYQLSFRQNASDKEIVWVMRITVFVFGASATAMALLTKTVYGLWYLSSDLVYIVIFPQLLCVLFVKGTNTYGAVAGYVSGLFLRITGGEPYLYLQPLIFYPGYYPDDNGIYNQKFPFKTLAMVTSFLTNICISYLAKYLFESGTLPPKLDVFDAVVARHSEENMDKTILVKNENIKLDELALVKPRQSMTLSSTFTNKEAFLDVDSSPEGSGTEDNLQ

[8] = target: T6, High affinity choline transporter 1; experiment: human choline transporter blockers, potency – cell-based, 5-point CRC, membrane potential dye, dose response (AID 504840); type: functional
[9] = target: Troponin, cardiac muscle (Homo sapiens, UniProt P19429+P45379+P63316); experiment: Fluorescence-based biochemical high throughput dose response assay for activators of the calcium sensitivity of cardiac Regulated Thin Filaments (RTF). [Related pubchem assays (depositor defined):AID493008, AID493018, AID504382, AID504383]; type: protein-complex assay
[10] = target: T7, Rac GTPase-activating protein 1 (Homo sapiens, UniProt Q9H0H5); experiment: blockers of MgcRacGAP-driven Rac1 GTP hydrolysis – biochemical, ADP Hunter fluorescence, primary and confirmatory, confirmation (AID 624330); type: functional
T7 sequence (Q9H0H5 whole entry): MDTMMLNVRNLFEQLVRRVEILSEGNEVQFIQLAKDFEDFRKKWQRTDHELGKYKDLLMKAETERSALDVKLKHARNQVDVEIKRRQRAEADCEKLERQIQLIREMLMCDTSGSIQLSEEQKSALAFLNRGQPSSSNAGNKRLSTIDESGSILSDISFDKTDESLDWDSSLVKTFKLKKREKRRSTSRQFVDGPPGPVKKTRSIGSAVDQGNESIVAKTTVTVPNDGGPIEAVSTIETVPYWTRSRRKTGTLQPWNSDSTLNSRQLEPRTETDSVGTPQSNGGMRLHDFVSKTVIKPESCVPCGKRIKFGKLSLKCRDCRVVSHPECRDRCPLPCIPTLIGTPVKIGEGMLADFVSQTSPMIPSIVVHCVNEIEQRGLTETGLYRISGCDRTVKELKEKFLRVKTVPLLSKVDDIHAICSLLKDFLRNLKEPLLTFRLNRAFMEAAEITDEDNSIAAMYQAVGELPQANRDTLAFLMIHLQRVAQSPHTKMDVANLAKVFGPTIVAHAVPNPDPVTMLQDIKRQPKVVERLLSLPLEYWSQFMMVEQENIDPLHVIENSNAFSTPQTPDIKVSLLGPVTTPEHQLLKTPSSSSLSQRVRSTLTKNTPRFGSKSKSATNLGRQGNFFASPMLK

[11] = target: Heat shock protein HSP 90-alpha (Homo sapiens, UniProt P07900); type: functional, organism-based
[12] = target: Melanin-concentrating hormone receptor 1 (Homo sapiens, UniProt Q99705); experiment: Late-stage fluorescence-based counterscreen for antagonists of the G-protein coupled receptor 7 (GPR7): cell-based dose response assay to identify antagonists of the melanin-concentrating hormone receptor 1 (MCHR1) Set 5.; type: functional
[13] = target: T8, Apoptotic protease-activating factor 1 (Homo sapiens, UniProt O14727); experiment: SAR analysis of small molecule Activators of Apaf-1 in a Fluorescent assay.; type: functional; details: read-out: EC50_Mean;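 also: caspase-3 cleavage of fluorogenic Rh110 DEVD substrate downstream of apoptosome activation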
T8 sequence (O14727 whole entry): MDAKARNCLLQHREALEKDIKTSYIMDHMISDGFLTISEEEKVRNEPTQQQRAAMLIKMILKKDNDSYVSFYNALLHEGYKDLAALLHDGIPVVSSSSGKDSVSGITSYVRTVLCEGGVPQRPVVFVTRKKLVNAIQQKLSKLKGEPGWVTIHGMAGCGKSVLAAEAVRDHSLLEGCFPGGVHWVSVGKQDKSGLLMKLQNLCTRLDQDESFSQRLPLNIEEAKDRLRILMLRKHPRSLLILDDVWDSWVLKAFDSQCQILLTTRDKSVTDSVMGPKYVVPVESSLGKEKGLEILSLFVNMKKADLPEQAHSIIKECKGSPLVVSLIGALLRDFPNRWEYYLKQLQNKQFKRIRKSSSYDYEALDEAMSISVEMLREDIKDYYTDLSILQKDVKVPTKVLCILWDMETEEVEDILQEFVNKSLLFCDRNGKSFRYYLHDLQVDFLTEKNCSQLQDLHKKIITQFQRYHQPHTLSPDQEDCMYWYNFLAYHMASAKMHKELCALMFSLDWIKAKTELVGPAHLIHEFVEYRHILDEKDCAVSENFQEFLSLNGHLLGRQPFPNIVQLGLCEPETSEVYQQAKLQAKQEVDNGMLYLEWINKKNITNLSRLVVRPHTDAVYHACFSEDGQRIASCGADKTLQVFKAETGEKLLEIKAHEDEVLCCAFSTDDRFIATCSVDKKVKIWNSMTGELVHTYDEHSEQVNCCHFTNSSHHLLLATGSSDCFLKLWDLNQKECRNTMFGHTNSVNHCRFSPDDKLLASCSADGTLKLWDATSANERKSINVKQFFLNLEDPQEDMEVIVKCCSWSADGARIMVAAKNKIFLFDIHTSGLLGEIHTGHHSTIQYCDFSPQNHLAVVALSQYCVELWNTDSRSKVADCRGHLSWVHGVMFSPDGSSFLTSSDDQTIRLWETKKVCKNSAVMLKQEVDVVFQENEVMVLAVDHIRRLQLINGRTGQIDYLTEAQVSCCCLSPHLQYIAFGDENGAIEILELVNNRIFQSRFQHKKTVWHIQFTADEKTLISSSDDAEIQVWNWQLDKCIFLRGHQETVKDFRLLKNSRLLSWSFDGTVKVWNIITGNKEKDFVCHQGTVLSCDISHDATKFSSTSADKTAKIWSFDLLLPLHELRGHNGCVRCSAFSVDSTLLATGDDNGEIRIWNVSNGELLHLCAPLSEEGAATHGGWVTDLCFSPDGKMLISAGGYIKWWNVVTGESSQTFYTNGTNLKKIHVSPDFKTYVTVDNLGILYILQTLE

Melanin-concentrating hormone receptor 1, sequence (Q99705 whole entry): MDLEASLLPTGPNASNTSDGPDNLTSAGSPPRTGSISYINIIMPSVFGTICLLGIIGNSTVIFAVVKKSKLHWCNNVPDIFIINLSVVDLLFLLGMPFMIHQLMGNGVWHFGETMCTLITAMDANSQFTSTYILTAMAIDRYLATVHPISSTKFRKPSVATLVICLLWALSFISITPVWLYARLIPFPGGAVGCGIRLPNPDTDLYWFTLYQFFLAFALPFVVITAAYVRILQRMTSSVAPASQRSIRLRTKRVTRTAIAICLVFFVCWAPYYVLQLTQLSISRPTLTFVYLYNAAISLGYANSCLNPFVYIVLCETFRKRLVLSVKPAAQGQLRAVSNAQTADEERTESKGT
T5 sequence (P11940 whole entry, the tested form may be a part): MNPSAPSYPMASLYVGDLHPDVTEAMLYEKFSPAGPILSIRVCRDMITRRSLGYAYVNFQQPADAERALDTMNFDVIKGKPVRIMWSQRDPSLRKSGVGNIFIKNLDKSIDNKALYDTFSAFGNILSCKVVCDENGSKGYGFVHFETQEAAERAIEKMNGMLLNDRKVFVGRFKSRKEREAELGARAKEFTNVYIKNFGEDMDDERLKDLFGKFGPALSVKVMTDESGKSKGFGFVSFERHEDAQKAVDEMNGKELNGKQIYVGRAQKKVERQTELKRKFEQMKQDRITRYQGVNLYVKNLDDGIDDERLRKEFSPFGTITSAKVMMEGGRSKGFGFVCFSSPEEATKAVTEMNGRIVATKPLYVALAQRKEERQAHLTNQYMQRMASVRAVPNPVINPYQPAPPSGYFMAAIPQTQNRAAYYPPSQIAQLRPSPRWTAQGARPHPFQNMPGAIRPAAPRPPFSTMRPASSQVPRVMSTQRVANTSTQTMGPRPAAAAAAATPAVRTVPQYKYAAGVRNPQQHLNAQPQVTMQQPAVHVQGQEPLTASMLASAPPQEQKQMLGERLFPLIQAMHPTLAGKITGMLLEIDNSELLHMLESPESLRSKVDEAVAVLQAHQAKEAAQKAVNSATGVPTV

CCN(CC)CCCN(Cc1cc2cc3c(cc2[nH]c1=O)OCO3)C(=S)NCCCN(C)C
AC50 [1]: 10.5 µM (active)
AC50 [2]: 5.22 µM (active)
AC50 [3]: 16.4 µM (active)
AC50 [4]: 9.07 µM (active)

CN1c2ccccc2C(O)=C(C(S)=Nc2ccc(F)c(Cl)c2)S1(=O)=O
IC50 [5]: > 66 µM (inactive)
IC50 [6]: > 66 µM (inactive)
IC50 [7]: 3.55 µM (active)
IC50 [8]: 4.79 µM (active)
EC50 [9]: > 71.5 µM (inactive)

CCC(Oc1ccccc1)C(=O)Nc1ccc(S(=O)(=O)NCC2CCCO2)cc1 (centres undefined)
IC50 [7]: 11.2 µM (active)
IC50 [8]: 10.5 µM (active)

O=C(NCC(c1ccco1)N1CCCCC1)c1cccc(NS(=O)(=O)c2ccc(Br)cc2)c1 (centres undefined)
IC50 [7]: 3.36 µM (active)
IC50 [8]: 6.92 µM (active)

O=[S@]1Oc2ccccc2-c2ccccc21
IC50 [10]: 76 µM (active)
AC50 [11]: 2.2 µM (active)

COc1cc(Oc2c(Cl)cnn(Cc3cccc4ccccc34)c2=O)cc(OC)c1OC
IC50 [12]: 3.22 µM (active)

O=C1CC2(CC(c3ccc(F)cc3)=NO2)C(=O)N1c1cccc(Cl)c1 (centres undefined)
EC50 [13]: > 100 µM (inactive)

COc1ccc(Oc2c(Cl)cnn(-c3nc4ccccc4c(=O)c4ccccc34)c2=O)cc1
IC50 [12]: 0.707 µM (active)

COc1cc(Cl)c(C)cc1NC(=O)CCS(=O)(=O)c1ccc(Cl)cc1
EC50 [13]: > 100 µM (inactive)
